Results from ChEMBL document CHEMBL1201862, “PubChem BioAssay data set” (2004).
Active and inactive are the calls of the source. Unless noted, the calls are words filed in the database; no cut-off is given here.

How the values were obtained:
ORF 73 = ORF 73 (Human herpesvirus 8, UniProt O40947); assay: inhibitors of C-LANA binding to LBS DNA, dose response, biochemical, fluorescence polarization, cherry-picked samples (AID 504725); parameters: species or system Human gammaherpesvirus 8;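 further: fluorescence polarization of a labeled DNA duplex reporting LANA DNA binding; potency is for inhibitors that block LANA binding to the DNA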
[1] = target: T1, Carboxy-terminal domain RNA polymerase II polypeptide A small phosphatase 1 (Homo sapiens, UniProt Q9GZU7); assay: inhibitors of CTDSP1, concentration-response testing, biochemical assay, absorbance-based, actives from ultra-high-throughput screening (AID 540297); format: functional
T1 sequence (Q9GZU7 whole entry): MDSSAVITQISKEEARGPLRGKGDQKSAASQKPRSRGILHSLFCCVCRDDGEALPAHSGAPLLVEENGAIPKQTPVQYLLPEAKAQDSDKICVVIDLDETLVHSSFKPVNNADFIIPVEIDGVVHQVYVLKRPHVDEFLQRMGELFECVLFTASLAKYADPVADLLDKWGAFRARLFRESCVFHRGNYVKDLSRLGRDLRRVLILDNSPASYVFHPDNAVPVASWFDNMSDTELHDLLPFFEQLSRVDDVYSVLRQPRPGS

[2] = cytotoxicity in HEK-293T cells, dose response, cytotoxicity control for BCR NF-kB inhibitor project, luminescence, B-cell screen hits (AID 489021); format: functional, cell-based;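 further: HEK-293T cells carrying an NF-kB luciferase reporter; cells exposed to compound for about 14 hours before viability readout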
[3] = target: G-protein coupled receptor 35 (Homo sapiens, UniProt Q9HC97); assay: GPR35 antagonists blocking zaprinast-driven arrestin recruitment, primary screen, imaging, U2OS, beta-arrestin-GFP, zaprinast agonist (AID 2058); format: functional;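 further: antagonist potency meaning inhibition of agonist-induced arrestin redistribution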
[4] = target: Neuropeptides B/W receptor type 1 (Homo sapiens, UniProt P48145); assay: Fluorescence-based dose response cell-based high throughput screening assay to identify antagonists of the G-protein coupled receptor 7 (GPR7). [Related pubchem assays: 1952 (Screening assay (GPR7 antagonists).), 1880 (Summary AID.)]; format: functional
[5] = target: Melanin-concentrating hormone receptor 1 (Homo sapiens, UniProt Q99705); assay: Fluorescence-based counterscreen for antagonists of the G-protein coupled receptor 7 (GPR7): cell-based high throughput dose response assay to identify antagonists of the melanin-concentrating hormone receptor 1 (MCHR1).; format: functional
Protein Rev = Protein Rev (Human immunodeficiency virus type 1 group M subtype B (isolate HXB2)(HIV-1), UniProt P04618); assay: inhibitors of Rev binding to RRE RNA, dose response, biochemical, fluorescence polarization, HIV-1 (AID 434976); parameters: species or system Human immunodeficiency virus 1
[6] = target: Female germline-specific tumor suppressor gld-1 (Caenorhabditis elegans, UniProt Q17339); assay: inhibitors of GLD-1 binding to TGE RNA, dose response, biochemical, fluorescence polarization, C. elegans (AID 2802);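 further: fluorescence polarization of labeled TGE RNA bound by purified gld-1 protein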
[7] = inhibition of ADP-Glo detection reagents, dose response, artefact control for CDK5 inhibitor project, biochemical, luminescence, cherry-picked samples, set 2 (AID 504546); format: functional
[8] = target: Cyclin-dependent kinase 5/CDK5 activator 1 (Homo sapiens, UniProt Q00535); assay: CDK5/p35 kinase inhibitors, dose response, biochemical, cherry-picked samples, set 2 (AID 504545)
Tumor necrosis factor = Tumor necrosis factor (Homo sapiens, UniProt P01375); assay: TNFa-triggered NF-kB activation inhibitors, SAR follow-up, cell-based, revised (AID 2337); format: functional
[9] = target: Nucleotide-binding oligomerization domain-containing protein 1 (Homo sapiens, UniProt Q9Y239); assay: NOD1 signaling inhibitors, SAR follow-up, revised (AID 2333); format: functional
[10] = target: Nucleotide-binding oligomerization domain-containing protein 2 (Homo sapiens, UniProt Q9HC29); assay: PubChem AID 2334; format: functional
HEK293 = assay: cells; details: Homo sapiens;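 further: cells exposed to compound for 14 hours overnight before viability readout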
[11] = HEp-2 cell cytotoxicity, dose response, cytotoxicity control for RSV inhibitor project, HTS (AID 2410); format: functional; details: human respiratory syncytial virus
[12] = target: Lysosomal acid glucosylceramidase (Homo sapiens, UniProt P04062); assay: Dose response cell-based high throughput screening assay to identify enhancers of beta-glucosidase activity. [Related pubchem assays: 784 ]; format: functional
HT-29 = assay: Late-stage luminescence-based cell-based dose response assay to identify inhibitors of NADPH oxidase 1 (NOX1): Cytotoxicity assay 2.; format: functional; details: Homo sapiens
[13] = target: Alpha-2C adrenergic receptor (Homo sapiens, UniProt P18825); assay: Late-stage radioligand binding dose response assay to identify inhibitors of NADPH oxidase 1 (NOX1): PDSP screen Ki Set 2. [Related pubchem assays (depositor defined):AID1792, AID1796, AID1823, AID2532, AID2538, AID2539, AID2541, AID2545, AID2556, AID2664, AID2752, AID2773, AID2808, AID2819, AID434953, AID434974, AID434992, AID434993, AID434997 …
[14] = target: 5-hydroxytryptamine receptor 2B (Homo sapiens, UniProt P41595); assay: as above
[15] = target: Kappa-type opioid receptor (Homo sapiens, UniProt P41145); assay: as above
D(3) dopamine receptor = D(3) dopamine receptor (Homo sapiens, UniProt P35462); assay: as above
[16] = target: Muscarinic acetylcholine receptor M1 (Homo sapiens, UniProt P11229); assay: as above
[17] = target: Alpha-2B adrenergic receptor (Homo sapiens, UniProt P18089); assay: as above
[18] = target: Muscarinic acetylcholine receptor M2 (Homo sapiens, UniProt P08172); assay: as above
[19] = target: Alpha-2A adrenergic receptor (Homo sapiens, UniProt P08913); assay: as above
[20] = target: T2, Rac GTPase-activating protein 1 (Homo sapiens, UniProt Q9H0H5); assay: MgcRacGAP GTPase-activating activity inhibitors, confirmation, biochemical, ADP Hunter fluorescence, primary and confirmatory (AID 624330); format: functional
T2 sequence (Q9H0H5 whole entry): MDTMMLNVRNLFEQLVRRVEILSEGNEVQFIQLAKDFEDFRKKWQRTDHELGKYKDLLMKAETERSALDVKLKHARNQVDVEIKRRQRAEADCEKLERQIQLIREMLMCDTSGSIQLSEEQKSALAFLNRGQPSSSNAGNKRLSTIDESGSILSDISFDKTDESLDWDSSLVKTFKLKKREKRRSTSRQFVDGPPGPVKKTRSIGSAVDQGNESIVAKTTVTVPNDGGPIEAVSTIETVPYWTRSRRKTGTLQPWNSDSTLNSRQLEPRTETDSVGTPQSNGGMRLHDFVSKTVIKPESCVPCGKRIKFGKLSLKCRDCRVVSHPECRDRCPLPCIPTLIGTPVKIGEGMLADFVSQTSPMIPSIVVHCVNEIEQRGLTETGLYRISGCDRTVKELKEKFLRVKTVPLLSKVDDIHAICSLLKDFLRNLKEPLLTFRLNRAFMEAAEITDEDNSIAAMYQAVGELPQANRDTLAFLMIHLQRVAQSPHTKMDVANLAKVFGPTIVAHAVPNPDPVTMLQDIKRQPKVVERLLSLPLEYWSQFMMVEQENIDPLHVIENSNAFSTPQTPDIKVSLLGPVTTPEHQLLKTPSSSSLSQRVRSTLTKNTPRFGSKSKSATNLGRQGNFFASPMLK

Chain of Lysosomal acid glucosylceramidase (P04062 whole entry): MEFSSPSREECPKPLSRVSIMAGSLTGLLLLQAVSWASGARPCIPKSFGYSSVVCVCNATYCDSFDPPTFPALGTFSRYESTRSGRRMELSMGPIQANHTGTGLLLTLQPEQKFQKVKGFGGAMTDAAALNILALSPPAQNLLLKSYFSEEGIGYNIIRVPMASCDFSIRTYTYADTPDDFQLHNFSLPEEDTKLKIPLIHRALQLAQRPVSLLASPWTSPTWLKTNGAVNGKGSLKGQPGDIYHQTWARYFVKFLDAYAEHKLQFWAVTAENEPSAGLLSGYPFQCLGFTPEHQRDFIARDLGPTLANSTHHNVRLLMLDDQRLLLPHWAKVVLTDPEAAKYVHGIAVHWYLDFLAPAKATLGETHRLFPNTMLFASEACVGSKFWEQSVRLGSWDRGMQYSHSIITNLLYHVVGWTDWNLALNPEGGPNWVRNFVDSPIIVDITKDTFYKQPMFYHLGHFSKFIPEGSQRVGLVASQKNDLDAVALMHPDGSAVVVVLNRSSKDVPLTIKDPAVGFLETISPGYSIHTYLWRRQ
Chain of 5-hydroxytryptamine receptor 2B (P41595 whole entry): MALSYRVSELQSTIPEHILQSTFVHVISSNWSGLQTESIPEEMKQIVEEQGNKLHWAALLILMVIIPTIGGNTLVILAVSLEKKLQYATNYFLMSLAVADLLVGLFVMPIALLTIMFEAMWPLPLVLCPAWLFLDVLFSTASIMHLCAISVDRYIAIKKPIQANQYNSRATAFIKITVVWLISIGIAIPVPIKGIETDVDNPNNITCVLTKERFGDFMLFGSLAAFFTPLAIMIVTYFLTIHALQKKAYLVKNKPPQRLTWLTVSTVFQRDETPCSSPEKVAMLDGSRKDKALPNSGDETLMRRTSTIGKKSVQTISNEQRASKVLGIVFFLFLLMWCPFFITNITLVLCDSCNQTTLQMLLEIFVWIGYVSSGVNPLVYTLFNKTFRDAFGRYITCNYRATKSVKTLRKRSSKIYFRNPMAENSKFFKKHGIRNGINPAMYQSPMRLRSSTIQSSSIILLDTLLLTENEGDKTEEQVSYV
Chain of ORF 73 (O40947 whole entry, the tested form may be a part): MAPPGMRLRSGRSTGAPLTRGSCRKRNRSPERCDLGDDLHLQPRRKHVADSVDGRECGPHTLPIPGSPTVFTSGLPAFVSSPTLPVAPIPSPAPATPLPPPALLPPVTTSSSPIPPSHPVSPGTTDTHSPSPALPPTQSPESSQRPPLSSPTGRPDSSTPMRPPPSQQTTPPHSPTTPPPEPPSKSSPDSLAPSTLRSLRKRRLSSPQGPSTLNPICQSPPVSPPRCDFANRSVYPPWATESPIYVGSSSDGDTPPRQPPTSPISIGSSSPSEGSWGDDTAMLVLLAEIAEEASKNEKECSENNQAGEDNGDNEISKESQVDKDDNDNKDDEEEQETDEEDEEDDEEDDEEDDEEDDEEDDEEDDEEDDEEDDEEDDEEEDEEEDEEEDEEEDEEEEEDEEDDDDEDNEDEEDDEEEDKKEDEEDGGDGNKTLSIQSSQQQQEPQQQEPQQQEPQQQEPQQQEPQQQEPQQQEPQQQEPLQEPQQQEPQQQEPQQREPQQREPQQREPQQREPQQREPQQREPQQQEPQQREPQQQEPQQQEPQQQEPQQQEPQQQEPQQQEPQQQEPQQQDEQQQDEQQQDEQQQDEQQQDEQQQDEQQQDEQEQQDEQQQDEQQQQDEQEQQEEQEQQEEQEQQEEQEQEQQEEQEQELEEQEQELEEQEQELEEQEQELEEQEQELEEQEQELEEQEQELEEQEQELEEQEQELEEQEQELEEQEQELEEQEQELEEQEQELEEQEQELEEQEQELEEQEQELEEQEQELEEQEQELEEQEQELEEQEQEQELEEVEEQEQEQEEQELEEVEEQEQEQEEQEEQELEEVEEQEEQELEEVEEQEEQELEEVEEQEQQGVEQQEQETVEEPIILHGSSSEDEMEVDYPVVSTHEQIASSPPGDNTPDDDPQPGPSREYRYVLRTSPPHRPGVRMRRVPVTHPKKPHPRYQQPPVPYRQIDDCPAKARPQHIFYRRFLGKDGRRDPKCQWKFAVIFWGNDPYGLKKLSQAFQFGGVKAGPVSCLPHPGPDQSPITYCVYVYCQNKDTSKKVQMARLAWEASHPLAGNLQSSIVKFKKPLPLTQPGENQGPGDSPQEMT
Chain of Alpha-2A adrenergic receptor (P08913 whole entry): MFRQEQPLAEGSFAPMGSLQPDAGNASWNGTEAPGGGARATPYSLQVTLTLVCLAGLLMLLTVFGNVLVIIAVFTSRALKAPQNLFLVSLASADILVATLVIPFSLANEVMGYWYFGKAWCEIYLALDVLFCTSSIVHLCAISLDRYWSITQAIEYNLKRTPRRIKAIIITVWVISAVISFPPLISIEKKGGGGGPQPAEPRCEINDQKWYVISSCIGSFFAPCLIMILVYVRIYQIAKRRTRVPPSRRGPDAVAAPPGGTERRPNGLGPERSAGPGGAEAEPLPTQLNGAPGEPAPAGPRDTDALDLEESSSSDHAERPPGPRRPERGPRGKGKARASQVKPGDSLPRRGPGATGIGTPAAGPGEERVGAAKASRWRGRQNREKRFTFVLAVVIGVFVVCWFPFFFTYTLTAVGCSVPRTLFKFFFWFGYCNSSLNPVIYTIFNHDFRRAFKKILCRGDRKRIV
Chain of D(3) dopamine receptor (P35462 whole entry): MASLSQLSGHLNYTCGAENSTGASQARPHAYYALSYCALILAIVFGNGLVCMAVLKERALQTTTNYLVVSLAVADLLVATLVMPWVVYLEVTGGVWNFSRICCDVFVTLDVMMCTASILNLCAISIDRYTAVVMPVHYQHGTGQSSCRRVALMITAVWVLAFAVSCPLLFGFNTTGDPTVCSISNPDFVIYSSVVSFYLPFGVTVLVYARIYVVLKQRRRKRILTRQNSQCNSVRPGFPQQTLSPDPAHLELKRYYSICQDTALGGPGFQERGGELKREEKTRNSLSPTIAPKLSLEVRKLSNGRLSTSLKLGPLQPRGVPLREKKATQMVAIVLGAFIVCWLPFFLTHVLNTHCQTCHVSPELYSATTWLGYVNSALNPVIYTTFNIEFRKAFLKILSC
Chain of Cyclin-dependent kinase 5/CDK5 activator 1 (Q00535 whole entry): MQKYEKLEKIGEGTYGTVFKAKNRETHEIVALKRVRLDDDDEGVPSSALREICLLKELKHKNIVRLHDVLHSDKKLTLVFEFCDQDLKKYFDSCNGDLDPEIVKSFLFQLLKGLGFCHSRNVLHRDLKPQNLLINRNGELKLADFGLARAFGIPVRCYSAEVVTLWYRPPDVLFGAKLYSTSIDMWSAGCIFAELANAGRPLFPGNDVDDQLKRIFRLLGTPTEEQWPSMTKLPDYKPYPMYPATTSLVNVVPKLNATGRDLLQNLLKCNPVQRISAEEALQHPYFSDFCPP
Chain of Cyclin-dependent kinase 5/CDK5 activator 1 (Q15078 whole entry, further chain): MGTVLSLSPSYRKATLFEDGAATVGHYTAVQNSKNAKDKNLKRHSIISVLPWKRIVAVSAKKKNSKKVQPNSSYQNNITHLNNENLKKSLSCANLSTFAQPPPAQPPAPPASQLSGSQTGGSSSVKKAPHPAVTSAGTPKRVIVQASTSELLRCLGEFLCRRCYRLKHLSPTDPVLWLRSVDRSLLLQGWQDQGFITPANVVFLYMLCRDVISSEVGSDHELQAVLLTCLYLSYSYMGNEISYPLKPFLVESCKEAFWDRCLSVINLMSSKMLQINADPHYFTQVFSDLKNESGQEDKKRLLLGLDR
Chain of Nucleotide-binding oligomerization domain-containing protein 1 (Q9Y239 whole entry, the tested form may be a part): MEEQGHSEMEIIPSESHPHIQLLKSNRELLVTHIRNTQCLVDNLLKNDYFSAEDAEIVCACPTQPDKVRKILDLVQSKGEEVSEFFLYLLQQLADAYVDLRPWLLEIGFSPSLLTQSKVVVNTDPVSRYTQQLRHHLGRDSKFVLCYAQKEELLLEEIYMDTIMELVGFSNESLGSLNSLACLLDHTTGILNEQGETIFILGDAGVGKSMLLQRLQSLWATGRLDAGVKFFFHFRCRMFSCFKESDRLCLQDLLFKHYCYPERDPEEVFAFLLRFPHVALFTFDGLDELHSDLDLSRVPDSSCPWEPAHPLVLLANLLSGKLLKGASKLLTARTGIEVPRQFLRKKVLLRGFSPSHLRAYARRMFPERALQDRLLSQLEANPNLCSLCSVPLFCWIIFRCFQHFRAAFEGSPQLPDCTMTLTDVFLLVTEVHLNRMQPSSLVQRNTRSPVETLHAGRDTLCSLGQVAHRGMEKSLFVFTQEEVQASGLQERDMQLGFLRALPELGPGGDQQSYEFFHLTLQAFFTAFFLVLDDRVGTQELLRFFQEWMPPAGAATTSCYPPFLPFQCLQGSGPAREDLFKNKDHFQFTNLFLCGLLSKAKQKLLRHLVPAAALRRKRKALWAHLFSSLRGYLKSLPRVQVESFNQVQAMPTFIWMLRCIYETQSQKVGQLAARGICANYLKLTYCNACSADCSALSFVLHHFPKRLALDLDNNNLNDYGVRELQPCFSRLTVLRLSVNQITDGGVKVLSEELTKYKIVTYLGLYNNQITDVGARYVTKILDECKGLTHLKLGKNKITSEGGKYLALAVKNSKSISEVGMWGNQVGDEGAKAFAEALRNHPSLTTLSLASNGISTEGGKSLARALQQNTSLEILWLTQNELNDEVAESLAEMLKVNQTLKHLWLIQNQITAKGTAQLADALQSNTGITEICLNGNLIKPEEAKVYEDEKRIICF
Chain of Alpha-2C adrenergic receptor (P18825 whole entry): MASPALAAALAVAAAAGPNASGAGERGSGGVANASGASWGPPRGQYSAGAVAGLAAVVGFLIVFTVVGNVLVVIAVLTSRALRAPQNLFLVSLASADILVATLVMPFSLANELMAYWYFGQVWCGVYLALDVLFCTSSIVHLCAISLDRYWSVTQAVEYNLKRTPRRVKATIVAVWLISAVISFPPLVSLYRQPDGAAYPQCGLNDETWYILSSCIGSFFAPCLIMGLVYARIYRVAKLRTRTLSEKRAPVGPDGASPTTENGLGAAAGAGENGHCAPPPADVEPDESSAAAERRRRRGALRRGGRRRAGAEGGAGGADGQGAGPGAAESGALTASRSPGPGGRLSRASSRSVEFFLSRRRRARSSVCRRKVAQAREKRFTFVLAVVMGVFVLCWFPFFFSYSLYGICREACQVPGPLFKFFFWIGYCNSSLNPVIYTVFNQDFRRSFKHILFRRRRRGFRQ

In the case of `N=C1/C(=C/c2ccc(-c3cccc(C(=O)O)c3)o2)C(=O)N=C2SC(CC(=O)N3CCOCC3)=NN12`, the AC50 (ORF 73) is reported as 67.7 µM (active) and the IC50 [1] is reported as 3.21 µM (active).
In the case of `O=C1CCCc2c1[nH]c1ccc(CN3CCCCC3)cc21`, the IC50 [2] is reported as > 80 µM (inactive).
For `COc1ccc2nc3oc(C(=O)N4CCN(c5cccc(Cl)c5)CC4)cc3cc2c1`, the IC50 [3] was 2.14 µM (active).
With `CCOC(=O)N1CCN(S(=O)(=O)c2ccc(C(=O)N(CCCN(C)C)c3nc4ccc(CC)cc4s3)cc2)CC1` the IC50 [4] was 14.2 µM (not active) and the IC50 [5] was 18.3 µM (not active).
For `CCOC(=O)c1cc2c(ccn2C)n1CC(=O)N(Cc1ccccc1)c1ccc(F)cc1`, the IC50 (Protein Rev) was > 75.4 µM (not active) and the IC50 [6] was > 59.6 µM (inactive).
For `Cc1occc1C(=O)N/N=C/c1ccc(N(C)C)cc1`, the AC50 [7] was 26.4 µM (active) and the AC50 [8] was 19.5 µM (active).
In the case of `O=C(Nc1sc2c(c1C(=O)O)CCCC2)c1cccs1`, the IC50 (Tumor necrosis factor) is reported as > 20 µM (inactive), the IC50 [9] is reported as > 20 µM (inactive) and the IC50 [10] is reported as > 20 µM (inactive). The IC50 (HEK293) was > 20 µM (inactive).
With `CC(=O)c1ccc2c(c1)Nc1ccccc1S2` the CC50 [11] was 18.5 µM (active), the EC50 [12] was > 50 µM (not active) and the CC50 (HT-29) was > 20 µM (not active). For the same compound, the Ki [13] was > 10 µM (inactive), the Ki [14] was 0.3 µM (active) and the Ki [15] was > 10 µM (inactive). The Ki (D(3) dopamine receptor) was > 10 µM (inactive), the Ki [16] was > 10 µM (inactive) and the Ki [17] was > 10 µM (inactive). The Ki [18] was > 10 µM (inactive), the Ki [19] was > 10 µM (inactive) and the IC50 [20] was 31.6 µM (active).
